Measured values as given in the NIST ThermoML archive (doi:10.1021/je5010214).
± gives the expanded uncertainty stated by the source.

Conditions: Liquid, Vibrating tube method

CCCCCCC [heptane]
mass density (313.15 K, 19932 kPa): 686.1 ± 0.88 kg/m3 | mass density (313.15 K, 22058 kPa): 687.733 ± 0.89 kg/m3 | mass density (313.15 K, 24862 kPa): 690.068 ± 0.9 kg/m3 | mass density (313.15 K, 27869 kPa): 692.385 ± 0.91 kg/m3 | mass density (313.15 K, 29957 kPa): 693.806 ± 0.92 kg/m3 | mass density (313.15 K, 32107 kPa): 695.43 ± 0.93 kg/m3 | mass density (313.15 K, 32980 kPa): 696.141 ± 0.94 kg/m3 | mass density (313.15 K, 33002 kPa): 696.147 ± 0.94 kg/m3 | mass density (313.15 K, 33981 kPa): 697.086 ± 0.94 kg/m3 | mass density (313.15 K, 35045 kPa): 697.948 ± 0.95 kg/m3 | mass density (313.15 K, 38127 kPa): 700.098 ± 0.96 kg/m3 | mass density (313.15 K, 41978 kPa): 702.778 ± 0.99 kg/m3 | mass density (313.15 K, 44946 kPa): 704.758 ± 1 kg/m3 | mass density (313.15 K, 47880 kPa): 706.851 ± 1 kg/m3 | mass density (313.15 K, 52097 kPa): 709.812 ± 1 kg/m3 | mass density (313.15 K, 54924 kPa): 711.549 ± 1.1 kg/m3 | mass density (313.15 K, 58082 kPa): 713.474 ± 1.1 kg/m3 | mass density (313.15 K, 59932 kPa): 714.707 ± 1.1 kg/m3 | mass density (313.15 K, 62004 kPa): 716.103 ± 1.1 kg/m3 | mass density (313.15 K, 64954 kPa): 717.814 ± 1.1 kg/m3 | mass density (313.15 K, 66113 kPa): 718.367 ± 1.1 kg/m3 | mass density (313.16 K, 860.7 kPa): 667.671 ± 0.82 kg/m3 | mass density (313.16 K, 39997 kPa): 701.327 ± 0.97 kg/m3 | mass density (313.16 K, 50021 kPa): 708.33 ± 1 kg/m3 | mass density (318.15 K, 100.7 kPa): 662.812 ± 0.81 kg/m3 | mass density (318.15 K, 336.3 kPa): 663.228 ± 0.81 kg/m3 | mass density (318.15 K, 1105.7 kPa): 663.94 ± 0.82 kg/m3 | mass density (318.15 K, 1929.1 kPa): 664.905 ± 0.82 kg/m3 | mass density (318.15 K, 2933.2 kPa): 665.972 ± 0.82 kg/m3 | mass density (318.15 K, 8989 kPa): 672.331 ± 0.84 kg/m3 | mass density (318.15 K, 10074 kPa): 673.533 ± 0.84 kg/m3 | mass density (318.15 K, 11896 kPa): 675.253 ± 0.85 kg/m3 | mass density (318.15 K, 18102 kPa): 681.046 ± 0.87 kg/m3 | mass density (318.15 K, 19985 kPa): 682.727 ± 0.88 kg/m3 | mass density (318.15 K, 22094 kPa): 684.679 ± 0.89 kg/m3 | mass density (318.15 K, 29998 kPa): 691.196 ± 0.93 kg/m3 | mass density (318.15 K, 33016 kPa): 693.259 ± 0.94 kg/m3 | mass density (318.15 K, 33180 kPa): 693.331 ± 0.94 kg/m3 | mass density (318.15 K, 37838 kPa): 697.046 ± 0.97 kg/m3 | mass density (318.15 K, 40092 kPa): 698.439 ± 0.98 kg/m3 | mass density (318.15 K, 44884 kPa): 701.561 ± 1 kg/m3 | mass density (318.15 K, 47944 kPa): 703.663 ± 1 kg/m3 | mass density (318.15 K, 54944 kPa): 708.215 ± 1.1 kg/m3 | mass density (318.15 K, 57972 kPa): 710.506 ± 1.1 kg/m3 | mass density (318.15 K, 59922 kPa): 711.605 ± 1.1 kg/m3 | mass density (318.15 K, 65022 kPa): 714.898 ± 1.1 kg/m3 | mass density (318.15 K, 66028 kPa): 715.438 ± 1.1 kg/m3 | mass density (318.16 K, 590.9 kPa): 663.443 ± 0.81 kg/m3 | mass density (318.16 K, 891 kPa): 663.766 ± 0.82 kg/m3 | mass density (318.16 K, 5020.8 kPa): 668.355 ± 0.83 kg/m3 | mass density (318.16 K, 6926.7 kPa): 670.309 ± 0.83 kg/m3 | mass density (318.16 K, 14800 kPa): 678.075 ± 0.86 kg/m3 | mass density (318.16 K, 24873 kPa): 686.865 ± 0.9 kg/m3 | mass density (318.16 K, 27909 kPa): 689.38 ± 0.92 kg/m3 | mass density (318.16 K, 31957 kPa): 692.414 ± 0.94 kg/m3 | mass density (318.16 K, 34110 kPa): 694.119 ± 0.95 kg/m3 | mass density (318.16 K, 35048 kPa): 694.934 ± 0.95 kg/m3 | mass density (318.16 K, 41996 kPa): 699.6 ± 0.99 kg/m3 | mass density (318.16 K, 49950 kPa): 705.2 ± 1 kg/m3 | mass density (318.16 K, 52037 kPa): 706.412 ± 1 kg/m3 | mass density (318.16 K, 61930 kPa): 712.85 ± 1.1 kg/m3 | mass density (323.15 K, 102.3 kPa): 658.378 ± 0.81 kg/m3 | mass density (323.15 K, 296.1 kPa): 658.71 ± 0.81 kg/m3 | mass density (323.15 K, 528.4 kPa): 658.782 ± 0.81 kg/m3 | mass density (323.15 K, 994.2 kPa): 659.429 ± 0.82 kg/m3 | mass density (323.15 K, 2006.9 kPa): 660.61 ± 0.82 kg/m3 | mass density (323.15 K, 2966.6 kPa): 661.806 ± 0.82 kg/m3 | mass density (323.15 K, 4996.2 kPa): 663.968 ± 0.83 kg/m3 | mass density (323.15 K, 7042.1 kPa): 666.276 ± 0.83 kg/m3 | mass density (323.15 K, 9029.9 kPa): 667.858 ± 0.84 kg/m3 | mass density (323.15 K, 10090 kPa): 669.742 ± 0.84 kg/m3 | mass density (323.15 K, 11914 kPa): 670.973 ± 0.85 kg/m3 | mass density (323.15 K, 15111 kPa): 674.373 ± 0.86 kg/m3 | mass density (323.15 K, 17981 kPa): 677.251 ± 0.87 kg/m3 | mass density (323.15 K, 20038 kPa): 678.71 ± 0.88 kg/m3 | mass density (323.15 K, 21995 kPa): 680.737 ± 0.89 kg/m3 | mass density (323.15 K, 24993 kPa): 683.213 ± 0.9 kg/m3 | mass density (323.15 K, 32079 kPa): 689.177 ± 0.94 kg/m3 | mass density (323.15 K, 33103 kPa): 689.972 ± 0.94 kg/m3
